# Measured values published in EP4596548A1, “NURR1 MODULATORS” (Ludwig-Maximilians-Universität, priority 2024, dated 2025).
# “Also recorded” adds a separate entry of the source.
# Tests used:
# Nurr1 [1] = target: T1, Nurr1 (Homo sapiens, UniProt P43354); assay: Ligand efficiency metrics; conditions: computed according to ref. 29
# Target sequence in this assay (P43354 whole entry, the tested form may be a part): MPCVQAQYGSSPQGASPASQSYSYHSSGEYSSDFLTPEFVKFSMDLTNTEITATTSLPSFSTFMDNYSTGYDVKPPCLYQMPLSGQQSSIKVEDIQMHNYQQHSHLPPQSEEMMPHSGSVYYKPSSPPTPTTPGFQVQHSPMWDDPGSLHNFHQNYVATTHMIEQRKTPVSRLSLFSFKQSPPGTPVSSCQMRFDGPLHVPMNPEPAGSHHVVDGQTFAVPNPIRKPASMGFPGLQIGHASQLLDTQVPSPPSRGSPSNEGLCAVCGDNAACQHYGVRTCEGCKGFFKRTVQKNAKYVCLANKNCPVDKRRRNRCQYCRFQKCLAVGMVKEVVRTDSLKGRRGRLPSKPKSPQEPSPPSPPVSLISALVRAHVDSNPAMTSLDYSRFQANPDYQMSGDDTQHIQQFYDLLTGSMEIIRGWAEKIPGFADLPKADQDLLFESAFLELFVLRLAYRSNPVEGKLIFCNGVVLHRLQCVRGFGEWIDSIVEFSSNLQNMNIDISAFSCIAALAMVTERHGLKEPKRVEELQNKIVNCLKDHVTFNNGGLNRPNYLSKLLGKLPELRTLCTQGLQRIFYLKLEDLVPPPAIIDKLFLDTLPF
# Nurr1 [2] = target: T1, Nurr1; assay: Gal4-Nurr1 hybrid reporter gene assay in HEK293T cells; assay type: cell-based; design: expressed in transfected cells; host or cells: HEK293T; conditions: for EC50: Gal4-Nurr1 hybrid reporter gene assay; for EC50 / max. activation: mean±SD, n≥3; for max. activation: maximum effect vs. 0.1% DMSO control; for EC50(Nurr1) (max. activation): result in words, at 100 µM
# Method: Hybrid reporter gene assays. Nurr1 modulation was determined in a Gal4 hybrid reporter gene assay in HEK293T cells (German Collection of Microorganisms and Cell Culture GmbH, DSMZ) using pFR-Luc (Stratagene, La Jolla, CA, USA; reporter), pRL-SV40 (Promega, Madison, WI, USA; internal control) and pFA-CMV-hNurr1-LBD^14, coding for the hinge region and ligand binding domain of the canonical isoform of human Nurr1. […] After 24 h, medium was changed to Opti-MEM without supplements and cells were transiently transfected using Lipofectamine LTX reagent (Invitrogen, Carlsbad, CA, USA) according to the manufacturer's protocol. Five hours after transfection, cells were incubated with the test compounds in Opti-MEM supplemented with penicillin (100 U/mL), streptomycin (100 µg/mL) and 0.1% DMSO for 16 h before luciferase activity was measured using the Dual-Glo Luciferase Assay System (Promega) according to the manufacturer's protocol on a Tecan Spark luminometer (Tecan Deutschland GmbH, Crailsheim, Germany). Firefly luminescence was divided by Renilla luminescence and multiplied by 1000 resulting in relative light units (RLU) to normalize for transfection efficiency and cell growth. Fold activation was obtained by dividing the mean RLU of test compound by the mean RLU of the untreated control. All samples were tested in at least three biologically independent experiments in duplicates. For dose-response curve fitting and calculation of EC50 values, the equation "[Agonist] vs. response -- Variable slope (four parameters)" was used in GraphPad Prism (version 7.00, GraphPad Software, La Jolla, CA, USA). Selectivity profiling was performed with identical procedures using pFA-CMV-Nur77-LBD^14, pFA-CMV-NOR-1-LBD^14, pFA-CMV-THRα-LBD^39, pFA-CMV-RARα-LBD^40, pFA-CMV-PPARα-LBD^41, pFA-CMV-PPARγ-LBD^41, pFA-CMV-PPARδ-LBD^41, pFA-CMV-LXRα-LBD^37, pFA-CMV-FXR-LBD^42 and pFA-CMV-hRXRα-LBD^43.
# Target sequence in this assay (P43354 360-595 limits assumed): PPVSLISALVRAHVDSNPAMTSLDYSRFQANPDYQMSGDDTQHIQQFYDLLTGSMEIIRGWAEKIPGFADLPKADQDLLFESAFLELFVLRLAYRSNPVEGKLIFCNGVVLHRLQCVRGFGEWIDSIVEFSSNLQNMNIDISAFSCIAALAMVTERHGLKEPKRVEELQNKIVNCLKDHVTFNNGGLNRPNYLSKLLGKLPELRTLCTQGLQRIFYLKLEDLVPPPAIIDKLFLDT
# Nurr1 LBD = target: T2, Nurr1 LBD (Homo sapiens, UniProt P43354); assay: Isothermal titration calorimetry (ITC); assay type: binding; conditions: ITC at 25°C
# T2 construct: Nurr1 LBD protein (10-30 µM, expressed as described previously^21); made in house
# Method: Isothermal Titration Calorimetry (ITC). ITC experiments were conducted on an Affinity ITC instrument (TA Instruments, New Castle, DE) at 25°C with a stirring rate of 75 rpm. Nurr1 LBD protein (10-30 µM, expressed as described previously^21) in buffer (20 mM Tris pH 7.5, 100 mM NaCl, 5% glycerol) containing 1-4% DMSO was titrated with the test compounds (60-150 µM in the same buffer containing 1-4% DMSO) in 26 injections (1x 1 µL, 25x 3-4 µL) with an injection interval of 150 s. As control experiments, the test compounds were titrated to the buffer, and the buffer was titrated to the Nurr1 LBD protein under otherwise identical conditions. Results were analyzed using NanoAnalyze software (version 3.11.0, TA Instruments, New Castle, DE) with independent binding models.
# T2 sequence (P43354 360-595 limits assumed): as above
Structure (SMILES),EC50 (Nurr1 [2]) [µM],max. activation (Nurr1 [2]) [fold],EC50(Nurr1) (max. activation) (Nurr1 [2]),also measured
"Cc1cc(N)c2cccc(Cl)c2n1 [Compound 4, 8-chloro-2-methylquinolin-4-amine]",17 ± 6,1.7±0.1,,ligand efficiency (LE) (Nurr1 [1]): 0.50; lipophilic ligand efficiency (LLE) (Nurr1 [1]): 1.99; size-independent ligand eff. (SILE) (Nurr1 [1]): 2.21
"Cc1nc2cccc(Cl)c2[nH]1 [Compound 7, 4-Chloro-2-methyl-benzimidazole]",,,failed to activate Nurr1; also recorded: inactive (100 µM),
"Cc1nc2c(Cl)cccn2c1N [Compound 8, 8-Chloro-2-methylimidazo[1,2-a]pyridine-3-amine]",7 ± 1,2.0±0.1,,ligand efficiency (LE) (Nurr1 [1]): 0.59; lipophilic ligand efficiency (LLE) (Nurr1 [1]): 3.28; size-independent ligand eff. (SILE) (Nurr1 [1]): 2.45; Kd (Nurr1 LBD): 2.7 µM
Cc1nc2cc(Cl)ccn2c1N [Compound 9],,,inactive (100 µM),
Nc1cnc2ccccn12 [Compound 10],,,inactive (100 µM),
Clc1cccn2ccnc12 [Compound 11],,,inactive (100 µM),
"Nc1cnc2c(Cl)cccn12 [Compound 12, 3-Amino-8-chloroimidazo[1,2-a]pyridine]",,,inactive (100 µM),
Cc1nc2ccccn2c1N [Compound 13],,,inactive (100 µM),
CC(C)c1nc2c(Cl)cccn2c1N [Compound 14],,< 1.2,inactive,
Nc1c(-c2ccccc2)nc2c(Cl)cccn12 [Compound 15],,1.4±0.1,,
Nc1c(-c2ccoc2)nc2c(Cl)cccn12 [Compound 16],,< 1.2,inactive,
Nc1c(-c2ccc(Cl)cc2)nc2c(Cl)cccn12 [Compound 17],15 ± 3,1.7±0.2,,
Nc1c(-c2cccc(Cl)c2)nc2c(Cl)cccn12 [Compound 18],9 ± 3,1.7±0.1,,
Nc1c(-c2ccccc2Cl)nc2c(Cl)cccn12 [Compound 19],,,inactive (100 µM),
Cc1ccc(-c2nc3c(Cl)cccn3c2N)cc1 [Compound 20],12 ± 2,2.0±0.2,,
